Assay results published in patent US20220395549A1, “COMPOSITIONS OF THE OLEA EUROPAEA V. SYLVESTRIS WITH ANTIMICROBIAL EFFICACY” (TAPROGGE GMBH, priority 2019, published 2022).

Assays:
[1] = solubility as encountered during the assays; assay type: physicochemical
From the text: The reduction at the later points in time is due to the natural loss of viability of the bacteria.

S. aureus ATCC 6538 = assay: quantitative suspension assay of mono-substances; assay type: cell-based, Staphylococcus aureus; settings: for Number of CFUs: initial cell load 9.5 × 10^4 CFU/ml
Experimental: A stock solution was prepared by adding 0.1 ml methanol to 10.48 mg of hydroxytyrosol. After dissolving of the compound, the solution was quantitatively transferred into 4.9 ml water for injection (WFI), effective concentration of hydroxytyrosol: 2.0 mg/ml.
Using the stock solution, five (5) concentrations of hydroxytyrosol in a geometric series of 2 mg hydroxytyrosol/ml to 0.125 mg hydroxytyrosol/ml were tested in a quantitative suspension assay.
2 ml of the stock solution and the dilutions (V1 to V4), respectively, and a methanol-solution of 2% as a positive control were inoculated with 0.1 ml of a test suspension of S. aureus ATCC 6538, adjusted to about 2.0×10^5 CFU/0.1 ml, resulting in about 100,000 CFU/ml in the individual assays.
Samples (0.1 ml) were then taken at t 0, 12, 30, and 60 minutes as well as t 24 48, and 72 hours after inoculation and culturing at between 20-25° C., and were diluted with 0.9 ml of 0.9% NaCl solution. The samples were plated on blood agar plates, and incubated up to 5 days at between 30-35° C.
A stock solution was prepared at a concentration of 2 mg/ml of oleocanthal. The compound was dissolved by in ethanol (99.8%) and WFI was added.
Using the stock solution, concentrations of oleocanthal in a geometric series of 1 mg oleocanthal/ml to 0.125 mg oleocanthal/ml were tested in a quantitative suspension assay.
2 ml of the stock solution and the dilutions (V1 to V4), respectively, and a ethanol-solution of 2.85% as a positive control were inoculated with 0.055 ml of a test suspension of S. aureus ATCC 6538, adjusted to about 3.6×10^5 CFU/0.1 ml, resulting in about 99,000 CFU/ml in the individual assays.
A stock solution was prepared at a concentration of 1 mg/ml of oleacin. The compound was dissolved by in ethanol (99.8%) and WFI was added.
Using the stock solution, concentrations of oleacin at 0.25 mg oleacin/ml and 0.125 mg oleacin/ml were tested in a quantitative suspension assay.
2 ml of the stock solution and the dilutions (V1 and V2), respectively, and a ethanol-solution of 0.44% as a positive control were inoculated with 0.055 ml of a test suspension of S. aureus ATCC 6538, adjusted to about 3.5×10^5 CFU/0.1 ml, resulting in about 99,000 CFU/ml in the individual assays.
A stock solution was prepared by adding 0.1 ml chloroform to 25 mg of uvaol. After dissolving of the compound, the solution was quantitatively transferred into 12.4 ml water for injection (WFI), effective concentration of uvaol: 2.0 mg/ml.
Using the stock solution, five (5) concentrations of uvaol in a geometric series of 2 mg uvaol/ml to 0.125 mg uvaol/ml were tested in a quantitative suspension assay.
2 ml of the stock solution and the dilutions (V1 to V4), respectively, and a chloroform-solution of 0.8% as a positive control were inoculated with 0.1 ml of a test suspension of S. aureus ATCC 6538, adjusted to about 2.0×10^5 CFU/0.1 ml, resulting in about 100,000 CFU/ml in the individual assays.
A stock solution was prepared by adding 0.1 ml chloroform to 10.45 mg of erythrodiol. After dissolving of the compound, the solution was quantitatively transferred into 4.9 ml water for injection (WFI), effective concentration of erythrodiol: 2.0 mg/ml.
2 ml of the stock solution and the dilutions (V1 to V4), respectively, and a chloroform-solution of 2% as a positive control were inoculated with 0.1 ml of a test suspension of S. aureus ATCC 6538, adjusted to about 3.6×10^5 CFU/0.1 ml, resulting in about 100.000 CFU/ml in the individual assays.

CC1(C)CC[C@]2(CO)CC[C@]3(C)C(=CC[C@@H]4[C@@]5(C)CC[C@H](O)C(C)(C)[C@@H]5CC[C@]43C)[C@@H]2C1 [erythrodiol]
solubility [1]: poor solubility
Number of CFUs (S. aureus ATCC 6538; 0.125 Ery/ml, t 0 min): >10^4 CFU/ml
Number of CFUs (S. aureus ATCC 6538; 0.125 Ery/ml, t 12 min): >10^4 CFU/ml
Number of CFUs (S. aureus ATCC 6538; 0.125 Ery/ml, t 30 min): >10^4 CFU/ml
Number of CFUs (S. aureus ATCC 6538; 0.125 Ery/ml, t 60 min): >10^4 CFU/ml
Number of CFUs (S. aureus ATCC 6538; 0.125 Ery/ml, t 24 h): >10^4 CFU/ml
Number of CFUs (S. aureus ATCC 6538; 0.125 Ery/ml, t 48 h): >10^4 CFU/ml
Number of CFUs (S. aureus ATCC 6538; 0.125 Ery/ml, t 72 h): >10^4 CFU/ml
Number of CFUs (S. aureus ATCC 6538; 0.25 Ery/ml, t 0 min): 2.8 × 10^4 CFU/ml
Number of CFUs (S. aureus ATCC 6538; 0.25 Ery/ml, t 12 min): 2.9 × 10^4 CFU/ml
Number of CFUs (S. aureus ATCC 6538; 0.25 Ery/ml, t 30 min): 2.0 × 10^4 CFU/ml
Number of CFUs (S. aureus ATCC 6538; 0.25 Ery/ml, t 60 min): 1.7 × 10^4 CFU/ml
Number of CFUs (S. aureus ATCC 6538; 0.25 Ery/ml, t 24 h): >10^4 CFU/ml
Number of CFUs (S. aureus ATCC 6538; 0.25 Ery/ml, t 48 h): >10^4 CFU/ml
Number of CFUs (S. aureus ATCC 6538; 0.25 Ery/ml, t 72 h): >10^4 CFU/ml
Number of CFUs (S. aureus ATCC 6538; 0.5 Ery/ml, t 0 min): 1.9 × 10^4 CFU/ml
Number of CFUs (S. aureus ATCC 6538; 0.5 Ery/ml, t 12 min): 2.0 × 10^4 CFU/ml
Number of CFUs (S. aureus ATCC 6538; 0.5 Ery/ml, t 30 min): 1.8 × 10^4 CFU/ml
Number of CFUs (S. aureus ATCC 6538; 0.5 Ery/ml, t 60 min): 1.0 × 10^4 CFU/ml
Number of CFUs (S. aureus ATCC 6538; 0.5 Ery/ml, t 24 h): >10^4 CFU/ml
Number of CFUs (S. aureus ATCC 6538; 0.5 Ery/ml, t 48 h): >10^4 CFU/ml
Number of CFUs (S. aureus ATCC 6538; 0.5 Ery/ml, t 72 h): >10^4 CFU/ml
Number of CFUs (S. aureus ATCC 6538; 1.0 Ery/ml, t 0 min): <100 CFU/ml
Number of CFUs (S. aureus ATCC 6538; 1.0 Ery/ml, t 12 min): <100 CFU/ml
Number of CFUs (S. aureus ATCC 6538; 1.0 Ery/ml, t 30 min): <100 CFU/ml
Number of CFUs (S. aureus ATCC 6538; 1.0 Ery/ml, t 60 min): <100 CFU/ml
Number of CFUs (S. aureus ATCC 6538; 1.0 Ery/ml, t 24 h): 1.7 × 10^4 CFU/ml
Number of CFUs (S. aureus ATCC 6538; 1.0 Ery/ml, t 48 h): 1.0 × 10^4 CFU/ml
Number of CFUs (S. aureus ATCC 6538; 1.0 Ery/ml, t 72 h): 8.8 × 10^3 CFU/ml
Number of CFUs (S. aureus ATCC 6538; 2.0 Ery/ml, t 0 min): <100 CFU/ml
Number of CFUs (S. aureus ATCC 6538; 2.0 Ery/ml, t 12 min): <100 CFU/ml
Number of CFUs (S. aureus ATCC 6538; 2.0 Ery/ml, t 30 min): <100 CFU/ml
Number of CFUs (S. aureus ATCC 6538; 2.0 Ery/ml, t 60 min): <100 CFU/ml
Number of CFUs (S. aureus ATCC 6538; 2.0 Ery/ml, t 24 h): 8.2 × 10^3 CFU/ml
Number of CFUs (S. aureus ATCC 6538; 2.0 Ery/ml, t 48 h): <100 CFU/ml
Number of CFUs (S. aureus ATCC 6538; 2.0 Ery/ml, t 72 h): <100 CFU/ml
antimicrobial effect, summary in words (S. aureus ATCC 6538; detection limit of the assay 100 CFU/ml): strong effect after incubation at concentrations of 2.0 Ery/ml
